Results reported in the supplement of paper PMC6045584.
± gives the standard deviation of the averaged measurements.

Key:
BLEOMYCIN = compound: Cc1c(N)nc([C@H](CC(N)=O)NC[C@H](N)C(N)=O)nc1C(=O)N[C@H](C(=O)N[C@H](C)[C@@H](O)[C@H](C)C(=O)N[C@H](C(=O)NCCc1nc(-c2nc(C(=O)NCCC[S+](C)C)cs2)cs1)[C@@H](C)O)[C@@H](OC1OC(CO)C(O)C(O)C1OC1OC(CO)C(O)C(OC(N)=O)C1O)c1cnc[nH]1 [BLEOMYCIN]; assay: surviving fraction relative to DMSO-only wells; higher = less growth inhibition; conditions: exposure time: 5 days
Procedure, shortened: (§1)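 Five days of continuous inhibitor exposure, at 0.5, 1, 5, 10, 50, 100, 500 and 1000 nM, followed a 24-hour period after log-phase tumour cell lines were seeded at 250–500 cells per well in 384-well plates. Surviving fraction was derived from CellTiter-Glo luminescence relative to the median of DMSO-only wells. Plates were read after 10 minutes at room temperature, and lines screened three times were kept only if replicate Pearson r >0.7 and median Z' >0.3.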

BEZ-235 = compound: Cn1c(=O)n(-c2ccc(C(C)(C)C#N)cc2)c2c3cc(-c4cnc5ccccc5c4)ccc3ncc21 [BEZ-235]; assay: as above; conditions: exposure time: 5 days
Procedure, shortened: as §1

| Test System | surviving fraction (BLEOMYCIN; 0.5 nM) | surviving fraction (BLEOMYCIN; 1 nM) | surviving fraction (BLEOMYCIN; 5 nM) | surviving fraction (BLEOMYCIN; 10 nM) | surviving fraction (BLEOMYCIN; 50 nM) | surviving fraction (BLEOMYCIN; 100 nM) | surviving fraction (BLEOMYCIN; 500 nM) | surviving fraction (BLEOMYCIN; 1000 nM) | surviving fraction (BEZ-235; 0.5 nM) | surviving fraction (BEZ-235; 1 nM) | surviving fraction (BEZ-235; 5 nM) | surviving fraction (BEZ-235; 10 nM) | surviving fraction (BEZ-235; 50 nM) | surviving fraction (BEZ-235; 100 nM) | surviving fraction (BEZ-235; 500 nM) | surviving fraction (BEZ-235; 1000 nM) |
| --- | --- | --- | --- | --- | --- | --- | --- | --- | --- | --- | --- | --- | --- | --- | --- | --- |
| 22RV1 PROSTATE | 0.962 ± 0.044 | 0.979 ± 0.053 | 0.962 ± 0.029 | 0.887 ± 0.026 | 0.922 ± 0.0089 | 0.886 ± 0.051 | 0.738 ± 0.032 | 0.573 ± 0.088 | 1.04 ± 0.047 | 1.02 ± 0.085 | 0.992 ± 0.097 | 0.949 ± 0.096 | 0.448 ± 0.025 | 0.339 ± 0.065 | 0.126 ± 0.017 | 0.119 ± 0.018 |
| 93VU HEADNECK | 0.8 ± 0.006 | 0.83 ± 0.058 | 0.785 ± 0.011 | 0.783 ± 0.015 | 0.764 ± 0.058 | 0.633 ± 0.023 | 0.386 ± 0.025 | 0.327 ± 0.066 | 0.972 ± 0.12 | 0.985 ± 0.13 | 1.1 ± 0.11 | 1.08 ± 0.059 | 0.921 ± 0.035 | 0.71 ± 0.1 | 0.308 ± 0.053 | 0.334 ± 0.043 |
| 143B BONE | 0.978 ± 0.023 | 0.98 ± 0.023 | 0.995 ± 0.012 | 1.01 ± 0.042 | 0.946 ± 0.0014 | 0.977 ± 0.0014 | 0.82 ± 0.03 | 0.612 ± 0.028 | 1.03 ± 0.047 | 1.04 ± 0.047 | 1.031 ± 0.0028 | 1.0385 ± 0.00071 | 0.852 ± 0.033 | 0.735 ± 0.017 | 0.36 ± 0.017 | 0.336 ± 0.0028 |
| A549 LUNG | 0.932 ± 0.023 | 0.94 ± 0.032 | 0.956 ± 0.023 | 0.915 ± 0.046 | 1 ± 0.042 | 1.01 ± 0.018 | 0.825 ± 0.019 | 0.593 ± 0.032 | 0.997 ± 0.054 | 1.01 ± 0.052 | 1.01 ± 0.074 | 1.01 ± 0.083 | 1.03 ± 0.033 | 0.66 ± 0.022 | 0.26 ± 0.022 | 0.221 ± 0.0093 |
| ASKA SYNOVIAL | 0.897 ± 0.1 | 0.895 ± 0.046 | 0.94 ± 0.096 | 0.931 ± 0.028 | 0.811 ± 0.027 | 0.689 ± 0.026 | 0.427 ± 0.029 | 0.343 ± 0.015 | 1.06 ± 0.03 | 0.994 ± 0.023 | 0.896 ± 0.032 | 0.9767 ± 0.0031 | 0.775 ± 0.046 | 0.652 ± 0.016 | 0.418 ± 0.02 | 0.436 ± 0.019 |
| BT20 BREAST | 0.766 ± 0.062 | 0.742 ± 0.02 | 0.718 ± 0.045 | 0.768 ± 0.06 | 0.849 ± 0.071 | 0.688 ± 0.14 | 0.48 ± 0.087 | 0.353 ± 0.042 | 1.13 ± 0.062 | 1.07 ± 0.18 | 1.04 ± 0.14 | 1.03 ± 0.082 | 0.619 ± 0.051 | 0.42 ± 0.087 | 0.265 ± 0.044 | 0.246 ± 0.031 |
| BT549 BREAST | 0.82 ± 0.091 | 0.818 ± 0.16 | 0.637 ± 0.1 | 0.599 ± 0.11 | 0.421 ± 0.053 | 0.304 ± 0.053 | 0.121 ± 0.011 | 0.122 ± 0.048 | 1.06 ± 0.11 | 1.03 ± 0.032 | 1.03 ± 0.02 | 0.763 ± 0.22 | 0.699 ± 0.016 | 0.244 ± 0.073 | 0.136 ± 0.017 | 0.247 ± 0.29 |
| C33A CERVIX | 0.925 ± 0.11 | 0.98 ± 0.039 | 0.984 ± 0.13 | 0.827 ± 0.062 | 0.435 ± 0.014 | 0.334 ± 0.02 | 0.163 ± 0.015 | 0.124 ± 0.01 | 0.941 ± 0.029 | 0.984 ± 0.064 | 1.01 ± 0.098 | 0.993 ± 0.081 | 0.62 ± 0.043 | 0.349 ± 0.031 | 0.15 ± 0.016 | 0.14 ± 0.011 |
| CADOES1 SOFT TISSUE | 0.943 ± 0.079 | 0.967 ± 0.089 | 0.789 ± 0.12 | 0.776 ± 0.067 | 0.683 ± 0.051 | 0.503 ± 0.14 | 0.285 ± 0.019 | 0.116 ± 0.017 | 0.965 ± 0.1 | 0.996 ± 0.098 | 0.897 ± 0.03 | 0.99 ± 0.078 | 0.531 ± 0.11 | 0.28 ± 0.063 | 0.128 ± 0.007 | 0.0853 ± 0.01 |
| CAL51 BREAST | 0.911 ± 0.036 | 0.893 ± 0.052 | 0.904 ± 0.018 | 0.884 ± 0.014 | 0.729 ± 0.043 | 0.621 ± 0.037 | 0.273 ± 0.016 | 0.17 ± 0.011 | 0.92 ± 0.025 | 0.958 ± 0.035 | 0.902 ± 0.086 | 0.894 ± 0.056 | 0.453 ± 0.032 | 0.279 ± 0.018 | 0.097 ± 0.005 | 0.0853 ± 0.0042 |
| CAL72 BONE | 1.03 ± 0.032 | 1.02 ± 0.028 | 1 ± 0.044 | 1 ± 0.05 | 1.04 ± 0.04 | 1.01 ± 0.037 | 0.694 ± 0.066 | 0.556 ± 0.013 | 1.05 ± 0.026 | 1.06 ± 0.041 | 1.07 ± 0.043 | 1.03 ± 0.041 | 0.754 ± 0.053 | 0.369 ± 0.021 | 0.142 ± 0.011 | 0.124 ± 0.0079 |
| CAL120 BREAST | 0.901 ± 0.028 | 0.926 ± 0.022 | 0.903 ± 0.013 | 0.9 ± 0.023 | 0.819 ± 0.023 | 0.767 ± 0.021 | 0.546 ± 0.027 | 0.399 ± 0.0084 | 0.962 ± 0.022 | 0.9768 ± 0.0038 | 0.98 ± 0.011 | 0.911 ± 0.017 | 0.502 ± 0.029 | 0.296 ± 0.0058 | 0.102 ± 0.0053 | 0.0963 ± 0.0037 |
| CASKI CERVIX | 0.763 ± 0.063 | 0.767 ± 0.057 | 0.7 ± 0.051 | 0.636 ± 0.088 | 0.691 ± 0.023 | 0.612 ± 0.051 | 0.229 ± 0.018 | 0.141 ± 0.0035 | 0.872 ± 0.028 | 0.922 ± 0.016 | 0.896 ± 0.065 | 0.882 ± 0.081 | 0.452 ± 0.021 | 0.292 ± 0.0061 | 0.127 ± 0.0064 | 0.096 ± 0.0036 |
| CHLA90 AUTONOMIC GANGLIA | 0.941 ± 0.057 | 0.925 ± 0.035 | 0.906 ± 0.067 | 0.868 ± 0.025 | 0.864 ± 0.039 | 0.865 ± 0.021 | 0.827 ± 0.018 | 0.796 ± 0.032 | 0.983 ± 0.078 | 1 ± 0.033 | 0.979 ± 0.057 | 0.947 ± 0.05 | 0.644 ± 0.046 | 0.428 ± 0.024 | 0.175 ± 0.0087 | 0.106 ± 0.0023 |
| CME SYNOVIAL | 0.718 ± 0.14 | 0.749 ± 0.16 | 0.742 ± 0.12 | 0.513 ± 0.081 | 0.265 ± 0.021 | 0.293 ± 0.036 | 0.211 ± 0.0078 | 0.203 ± 0.0091 | 1.18 ± 0.12 | 1.28 ± 0.12 | 1.16 ± 0.066 | 1.26 ± 0.11 | 1.3 ± 0.11 | 1.12 ± 0.087 | 0.959 ± 0.076 | 0.713 ± 0.14 |
| COLO320DM LARGE INTESTINE | 1.09 ± 0.042 | 0.972 ± 0.025 | 1.03 ± 0.058 | 1.04 ± 0.099 | 1.15 ± 0.22 | 0.89 ± 0.052 | 0.868 ± 0.057 | 0.675 ± 0.024 | 1.06 ± 0.059 | 1.12 ± 0.08 | 1.14 ± 0.074 | 1.06 ± 0.039 | 0.869 ± 0.07 | 0.692 ± 0.034 | 0.328 ± 0.018 | 0.192 ± 0.0043 |
